The record followed here is patent US20260364184A1, “COMPOUND BASED ON OXOISOINDOLINYL-SUBSTITUTED TETRAHYDROPYRIMIDINE-DIONE AND USE THEREOF” (GLUETACS THERAPEUTICS (SHANGHAI) CO., LTD., priority 2023, published 2026).

The term inhibition denotes the share of the control response that was lost under treatment.

Assay [1] deals with T1, human Cereblon WT GST-tagged protein (CRBN) (Homo sapiens, UniProt Q96SW2).
T1 construct: purchased CISBIO 64BDCRBNPEH
The assay is described as follows: CRBN binding by HTRF (Cereblon binding kit). Particulars: for inhibition at 0.5 µM: read-out: Inhibition Rate at 0.5 μM (%); for inhibition at 2 µM: read-out: Inhibition Rate at 2 μM (%). The method in brief:
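GST-tagged human Cereblon WT was incubated 3 h at room temperature with compound, thalidomide-Re tracer and Eu anti-GST antibody. Final compound concentrations were 10 to 0.00064 µM (7 points) or 2 and 0.5 µM. Inhibition rate was calculated from HTRF 665/620 nm ratios versus solvent and blank controls.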

In assay [2] the target is T2, IRAK4 (Homo sapiens, UniProt Q9NWZ3).
T2 construct: expression of target proteins in cells; endogenous in cells
T2 sequence (Q9NWZ3 1-460): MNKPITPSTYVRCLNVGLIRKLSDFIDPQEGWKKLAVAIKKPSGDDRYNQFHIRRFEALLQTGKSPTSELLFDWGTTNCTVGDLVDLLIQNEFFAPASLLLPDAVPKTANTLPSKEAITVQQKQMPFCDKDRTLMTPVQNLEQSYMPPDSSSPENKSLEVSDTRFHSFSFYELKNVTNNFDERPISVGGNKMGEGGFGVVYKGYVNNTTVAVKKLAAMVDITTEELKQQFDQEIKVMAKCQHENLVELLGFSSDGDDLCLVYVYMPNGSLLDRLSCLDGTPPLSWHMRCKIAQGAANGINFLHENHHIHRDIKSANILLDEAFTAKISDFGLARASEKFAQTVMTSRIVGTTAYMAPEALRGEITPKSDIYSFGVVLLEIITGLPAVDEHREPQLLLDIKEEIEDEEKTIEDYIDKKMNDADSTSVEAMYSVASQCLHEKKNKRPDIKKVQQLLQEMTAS
The assay can be described thus: Western blot degradation of IRAK4. It is filed as cell-based. Particulars: hPBMC Cell; 24 hours. In short, it runs like this: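 Compound-treated cells harvested; lysates denatured 5 min at 95 °C, run on SDS-PAGE, blotted to NC membrane, blocked 1 h RT, probed with antibodies. Densitometry vs DMSO → DC50; target normalised to internal control → % remaining, degradation = 1 − remaining.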

T1 sequence (Q96SW2 whole entry): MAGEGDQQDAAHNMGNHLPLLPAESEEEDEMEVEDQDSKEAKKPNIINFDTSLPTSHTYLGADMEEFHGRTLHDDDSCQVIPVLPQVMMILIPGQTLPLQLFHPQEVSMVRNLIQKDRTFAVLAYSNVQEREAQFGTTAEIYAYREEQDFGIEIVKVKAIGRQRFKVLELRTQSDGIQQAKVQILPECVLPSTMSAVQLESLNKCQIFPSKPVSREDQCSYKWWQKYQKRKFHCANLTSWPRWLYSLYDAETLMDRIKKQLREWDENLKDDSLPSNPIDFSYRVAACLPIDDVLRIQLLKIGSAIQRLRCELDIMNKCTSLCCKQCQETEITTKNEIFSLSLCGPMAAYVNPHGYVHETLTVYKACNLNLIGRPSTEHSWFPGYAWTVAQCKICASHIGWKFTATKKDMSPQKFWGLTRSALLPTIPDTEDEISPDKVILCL

As to `N#Cc1ccc(O[C@H]2CC[C@H](NC(=O)c3ccc(N4CCC(CN5CC6CCC5CN6c5ccc6c(c5)C(=O)N(N5CCC(=O)NC5=O)C6=O)CC4)nn3)CC2)cc1Cl` (stereo partly drawn) [GT-05832, N-((1r,4r)-4-(3-chloro-4-cyanophenoxy)cyclohexyl)-6-(4-((5-(2-(2,4-dioxotetrahydropyrimidin-1(2H)-yl)-1,3-dioxoisoindolin-5-yl)-2,5-diazabicyclo[2.2.2]octan-2-yl)methyl)piperidin-1-yl)pyridazine-3-carboxamide], in assay [1], the inhibition at 0.5 µM was in the range of 30 to 40% and the inhibition at 2 µM lay in the range of 40 to 53%.

With `CC1(C)[C@H](NC(=O)c2ccc(N3CCC(CN4CC5CCC4CN5c4ccc5c(c4)C(=O)N(N4CCC(=O)NC4=O)C5=O)CC3)nc2)C(C)(C)[C@H]1Oc1ccc(C#N)c(Cl)c1` (stereo partly drawn) [GT-05834, N-((1r,3r)-3-(3-chloro-4-cyanophenoxy)-2,2,4,4-tetramethylcyclobutyl)-6-(4-((5-(2-(2,4-dioxotetrahydropyrimidin-1(2H)-yl)-1,3-dioxoisoindolin-5-yl)-2,5-diazabicyclo[2.2.2]octan-2-yl)methyl)piperidin-1-yl)nicotinamide], in assay [1], the inhibition at 0.5 µM is 30 to 40% and the inhibition at 2 µM lay in the range of 20 to 30%.

In the case of `O=C1CCN(N2Cc3cc(CN4CCC(n5cc(NC(=O)c6coc(-c7ccnc(NCC8CC8)c7)n6)c(C(F)F)n5)CC4)ccc3C2=O)C(=O)N1` [GT-04951, 2-(2-((cyclopropylmethyl)amino)pyridin-4-yl)-N-(3-(difluoromethyl)-1-(1-((2-(2,4-dioxotetrahydropyrimidin-1(2H)-yl)-1-oxoisoindolin-5-yl)methyl)piperidin-4-yl)-1H-pyrazol-4-yl) oxazole-4-carboxamide], in assay [1], the “Inhibition Rate at 0.5 μM (%)” value is on record as “a3 (30% < a3 ≤ 40%)” and the “Inhibition Rate at 2 μM (%)” value is “a6 (60% < a6 ≤ 80%)”. The “Degradation of substrate protein IRAK4 (substrate protein remaining %)” value (shortened to “Degradation … (substrate protein remaining %)”) in assay [2] is “A (0%≤substrate protein remaining %≤80%)”.

For `N#Cc1ccc(O[C@H]2CC[C@H](NC(=O)c3ccc(N4CCC(CN5C[C@@H]6C[C@H]5CN6c5ccc6c(c5)C(=O)N(N5CCC(=O)NC5=O)C6=O)CC4)nn3)CC2)cc1Cl` [GT-05226, N-((1r,4r)-4-(3-chloro-4-cyanophenoxy)cyclohexyl)-6-(4-(((1S,4S)-5-(2-(2,4-dioxotetrahydropyrimidin-1(2H)-yl)-1,3-dioxoisoindolin-5-yl)-2,5-diazabicyclo[2.2.1]heptan-2-yl)methyl)piperidin-1-yl)pyridazine-3-carboxamide], in assay [1], the inhibition at 0.5 µM lay within 30 to 40% and the inhibition at 2 µM was 30 to 40%.

Take `CC(C)(O)c1cc2nc(C3CCN(Cc4ccc5c(c4)CN(N4CCC(=O)NC4=O)C5=O)CC3)oc2cc1NC(=O)c1cccc(C(F)(F)F)n1` [GT-05748, N-(2-(1-((2-(2,4-dioxotetrahydropyrimidin-1(2H)-yl)-1-oxoisoindolin-5-yl)methyl)piperidin-4-yl)-5-(2-hydroxypropan-2-yl)benzo[d]oxazol-6-yl)-6-(trifluoromethyl) picolinamide]: in assay [1], the inhibition at 0.5 µM lay within 10 to 20% and the inhibition at 2 µM lay within 60 to 80%. Further, in assay [2], the “Degradation … (substrate protein remaining %)” value is reported as “A (0%≤substrate protein remaining %≤80%)”.

For the compound `O=C1CCN(N2C(=O)c3ccc(N4C5CC4CN(C[C@H]4CC[C@H](n6cc(NC(=O)c7cnn8ccc(N9C[C@H]%10C[C@@H]9CO%10)nc78)c(C(F)F)n6)CC4)C5)cc3C2=O)C(=O)N1` [GT-05242, 5-((1R,4R)-2-oxa-5-azabicyclo[2.2.1]heptan-5-yl)-N-(3-(difluoromethyl)-1-((1r,4R)-4-((6-(2-(2,4-dioxotetrahydropyrimidin-1(2H)-yl)-1,3-dioxoisoindolin-5-yl)-3,6-diazabicyclo[3.1.1]heptan-3-yl)methyl)cyclohexyl)-1H-pyrazol-4-yl)pyrazolo[1,5-a]pyrimidine-3-carboxamide], in assay [1], the inhibition at 0.5 µM fell in the range of 30 to 40% and the inhibition at 2 µM is 53 to 60%. In addition, in assay [2], the “Degradation … (substrate protein remaining %)” value was “A (0%≤substrate protein remaining %≤80%)”.

With `O=C1CCN(N2C(=O)c3cccc(N4CCC(CN5CCC(n6cc(NC(=O)c7cnn8ccc(N9C[C@H]%10C[C@@H]9CO%10)nc78)c(C(F)F)n6)CC5)CC4)c3C2=O)C(=O)N1` [GT-05285, 5-((1R,4R)-2-oxa-5-azabicyclo[2.2.1]heptan-5-yl)-N-(3-(difluoromethyl)-1-(1-((1-(2-(2,4-dioxotetrahydropyrimidin-1(2H)-yl)-1,3-dioxoisoindolin-4-yl)piperidin-4-yl)methyl)piperidin-4-yl)-1H-pyrazol-4-yl)pyrazolo[1,5-a]pyrimidine-3-carboxamide], in assay [1], the inhibition at 0.5 µM was in the range of 20 to 30% and the inhibition at 2 µM lay within 60 to 80%. Also, the “Degradation … (substrate protein remaining %)” value in assay [2] is recorded as “A (0%≤substrate protein remaining %≤80%)”.

With `O=C1CCN(N2Cc3cc(CN4CCC(n5cc(NC(=O)c6cnn7ccc(N8C[C@H]9C[C@@H]8CO9)nc67)c(C(F)F)n5)CC4)ccc3C2=O)C(=O)N1` [GT-05028, 5-((1R,4R)-2-oxa-5-azabicyclo[2.2.1]heptan-5-yl)-N-(3-(difluoromethyl)-1-(1-((2-(2,4-dioxotetrahydropyrimidin-1(2H)-yl)-1-oxoisoindolin-5-yl)methyl)piperidin-4-yl)-1H-pyrazol-4-yl)pyrazolo[1,5-a]pyrimidine-3-carboxamide], in assay [1], the “Inhibition Rate at 0.5 μM (%)” value is reported as “a2 (20% < a2 ≤ 30%)” and the “Inhibition Rate at 2 μM (%)” value was “a6 (60% < a6 ≤ 80%)”. Besides, the “Degradation … (substrate protein remaining %)” value in assay [2] is listed as “A (0%≤substrate protein remaining %≤80%)”.

Consider `O=C1CCN(N2Cc3cc(CN4CCC(n5cc(NC(=O)c6cnn7ccc(N8CCOCC8)nc67)c(C(F)F)n5)CC4)ccc3C2=O)C(=O)N1` [GT-05749], for which, in assay [1], the inhibition at 0.5 µM fell in the range of 20 to 30% and the inhibition at 2 µM lay within 53 to 60%. Moreover, the “Degradation … (substrate protein remaining %)” value in assay [2] is given as “A (0%≤substrate protein remaining %≤80%)”.
